Here are results for 14 compounds from patent US9815840B2 (CJ Healthcare Corporation, priority 2013, dated 2017).

The structures appear in SMILES notation. pIC50: −log10 of the molar value. Where only a bound is given, the exact number is not on record here.

c-Met, sequence (P08581 25-1390): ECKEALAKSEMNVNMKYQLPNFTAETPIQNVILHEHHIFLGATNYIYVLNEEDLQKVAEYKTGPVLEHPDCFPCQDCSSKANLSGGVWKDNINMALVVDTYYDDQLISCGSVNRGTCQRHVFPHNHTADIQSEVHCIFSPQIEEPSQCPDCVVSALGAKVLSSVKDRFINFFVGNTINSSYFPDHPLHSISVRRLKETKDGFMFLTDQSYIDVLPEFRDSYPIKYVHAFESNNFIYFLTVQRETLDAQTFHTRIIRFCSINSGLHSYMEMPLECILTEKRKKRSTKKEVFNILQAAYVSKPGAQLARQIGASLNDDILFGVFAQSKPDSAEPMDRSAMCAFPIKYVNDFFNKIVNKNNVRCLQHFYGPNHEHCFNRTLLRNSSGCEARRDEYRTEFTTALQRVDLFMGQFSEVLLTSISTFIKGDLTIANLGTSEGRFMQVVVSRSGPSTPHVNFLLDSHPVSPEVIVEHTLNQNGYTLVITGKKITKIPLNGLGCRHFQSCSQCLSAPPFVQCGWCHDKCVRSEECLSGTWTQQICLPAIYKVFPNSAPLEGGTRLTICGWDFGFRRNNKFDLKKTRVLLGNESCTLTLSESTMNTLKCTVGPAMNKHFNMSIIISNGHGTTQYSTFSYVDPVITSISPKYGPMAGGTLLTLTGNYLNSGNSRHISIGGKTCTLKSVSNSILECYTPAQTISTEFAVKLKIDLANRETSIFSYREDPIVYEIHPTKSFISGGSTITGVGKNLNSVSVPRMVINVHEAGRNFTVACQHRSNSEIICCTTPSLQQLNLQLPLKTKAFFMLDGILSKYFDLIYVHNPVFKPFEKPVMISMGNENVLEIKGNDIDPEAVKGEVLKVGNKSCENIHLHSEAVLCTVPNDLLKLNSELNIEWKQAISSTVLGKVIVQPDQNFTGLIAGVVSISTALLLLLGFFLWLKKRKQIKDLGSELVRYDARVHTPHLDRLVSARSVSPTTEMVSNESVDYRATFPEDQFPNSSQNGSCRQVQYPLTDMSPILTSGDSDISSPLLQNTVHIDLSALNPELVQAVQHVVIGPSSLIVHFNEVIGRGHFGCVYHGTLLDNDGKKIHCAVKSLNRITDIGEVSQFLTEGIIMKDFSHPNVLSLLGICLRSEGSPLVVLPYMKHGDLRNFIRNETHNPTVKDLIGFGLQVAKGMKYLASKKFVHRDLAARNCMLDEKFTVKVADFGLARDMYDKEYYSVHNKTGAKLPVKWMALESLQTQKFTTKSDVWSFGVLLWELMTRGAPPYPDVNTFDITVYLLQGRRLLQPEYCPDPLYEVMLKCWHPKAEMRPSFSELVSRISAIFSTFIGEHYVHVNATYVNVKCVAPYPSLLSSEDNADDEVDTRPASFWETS

The target in this assay is c-Met (Homo sapiens (Human), UniProt P08581). The assay can be described thus: Analysis of the inhibition of c-Met activity (ADP-Glo Kinase Assay). The class given is biochemical. The settings on record: c-Met enzyme 2 ng/μL, 250 μM G4Y1 peptide, 50 μM ATP, 1 hour at room temperature, luminescence. As to the method:
Analysis of the Inhibition of c-Met Activity (ADP-Glo™ Kinase Assay
The inhibitory effect of the compounds of the present invention on the activity of c-Met was confirmed as follows.
Specifically, 250 μM G4Y1 peptide, which serves as a substrate for c-Met enzyme (2 ng/μL), and 50 μM ATP were subjected to an enzyme reaction in a reaction buffer (40 mM Tris-HCl (pH 7.5), 20 mM MgCl2, 0.1 mg/mL bovine serum albumin, and 50 μM DTT). The compounds prepared in Examples and comparative compounds were treated at various concentrations and reacted at room temperature for 1 hour, sequentially added with ADP-Glo™ Reagent and the Kinase detection reagent, and reacted at room temperature for 40 minutes and 30 minutes, respectively.
Then, luminescence of the compounds was measured using the Wallaac Victor 2™ (PerkinElmer life sciences, 1420-042). The activity of c-Met inhibitors was evaluated by analyzing the data based on the measured RLU values. The activity of c-Met inhibitors was evaluated as the percentage of remaining activity of the c-Met enzyme in the samples treated with the compounds at concentrations to be tested, with the RLU value of the sample set at 100% control group.
In general terms: ADP-Glo turns the ADP formed in a reaction into a luminescent signal.
As usually defined, the pIC50 is the negative decadic logarithm of the IC50, by convention in mol/L. A higher pIC50 goes with a low IC50. `CCOc1ccn(-c2ccc(F)cc2)c(=O)c1C(=O)Nc1ccc(Oc2ccnn3ccc(-c4ccncc4)c23)c(F)c1` [Example 7] gave a negative logarithm of the IC50 (pIC50) of more than 7.40.
The figure for `CCOc1ccn(-c2ccc(F)cc2)c(=O)c1C(=O)Nc1ccc(Oc2ccnn3ccc(-c4cccc(C=O)c4)c23)c(F)c1` [Example 23, 4-ethoxy-N-(3-fluoro-4-((5-(3-formylphenyl)pyrrolo[1,2-b]pyridazin-4-yl)oxy)phenyl)-1-(4-fluorophenyl)-2-oxo-1,2-dihydropyridin-3-carboxamide] is more than 7.40; for `O=C(Nc1ccc(Oc2ccnn3ccc(-c4cccc(CO)c4)c23)c(F)c1)c1cccn(-c2ccc(F)cc2)c1=O` [Example 29] it is more than 7.40.
The figure for `CCOc1ccn(-c2ccc(F)cc2)c(=O)c1C(=O)Nc1ccc(Oc2ccnn3ccc(-c4cccc(C(C)(C)O)c4)c23)c(F)c1` [Example 43, 4-ethoxy-N-(3-fluoro-4-((5-(3-(2-hydroxypropan-2-yl)phenyl)pyrrolo[1,2-b]pyridazin-4-yl)oxy)phenyl)-1-(4-fluorophenyl)-2-oxo-1,2-dihydropyridin-3-carboxamide] is more than 7.40; for `CCOc1ccn(-c2ccc(F)cc2)c(=O)c1C(=O)Nc1ccc(Oc2ccnn3ccc(-c4cccc(C(C)O)c4)c23)c(F)c1` (centres unmarked) [Example 46, 4-ethoxy-N-(3-fluoro-4-((5-(3-(1-hydroxyethyl)phenyl)pyrrolo[1,2-b]pyridazin-4-yl)oxy)phenyl)-1-(4-fluorophenyl)-2-oxo-1,2-dihydropyridin-3-carboxamide] it is more than 7.40; for `CC(O)c1cccc(-c2ccn3nccc(Oc4ccc(NC(=O)c5cccn(-c6ccc(F)cc6)c5=O)cc4F)c23)c1` (centres unmarked) [Example 47, N-(3-fluoro-4-((5-(3-(1-hydroxyethyl)phenyl)pyrrolo[1,2-b]pyridazin-4-yl)oxy)phenyl)-1-(4-fluorophenyl)-2-oxo-1,2-dihydropyridin-3-carboxamide] it is more than 7.40.
Compound `CCOc1ccn(-c2ccc(F)cc2)c(=O)c1C(=O)Nc1ccc(Oc2ccnn3ccc(-c4cccc(CN5CCOCC5)c4)c23)c(F)c1` [Example 49] had a pIC50 of more than 7.40.
For the compound `CCOc1ccn(-c2ccc(F)cc2)c(=O)c1C(=O)Nc1ccc(Oc2ccnn3ccc(-c4cccc(C(=O)N5CCOCC5)c4)c23)c(F)c1` [Example 50, 4-ethoxy-N-(3-fluoro-4-((5-(3-morpholin-4-carbonylphenyl)pyrrolo[1,2-b]pyridazin-4-yl)oxy)phenyl)-1-(4-fluorophenyl)-2-oxo-1,2-dihydropyridin-3-carboxamide], the negative logarithm of the IC50 (pIC50) is more than 7.40.
The compound `CCOc1ccn(-c2ccc(F)cc2)c(=O)c1C(=O)Nc1ccc(Oc2ccnn3ccc(-c4cccc(N)c4)c23)c(F)c1` [Example 53, 4-ethoxy-N-(3-fluoro-4-((5-(3-aminophenyl)pyrrolo[1,2-b]pyridazin-4-yl)oxy)phenyl)-1-(4-fluorophenyl)-2-oxo-1,2-dihydropyridin-3-carboxamide] gave a pIC50 of more than 7.40.
`CCOc1ccn(-c2ccc(F)cc2)c(=O)c1C(=O)Nc1ccc(Oc2ccnn3ccc(-c4cccc(CN(C)C)c4)c23)c(F)c1` [Example 56, N-(4-((5-(3-((dimethylamino)methyl)phenyl)pyrrolo[1,2-b]pyridazin-4-yl)oxy)-3-fluorophenyl)-4-ethoxy-1-(4-fluorophenyl)-2-oxo-1,2-dihydropyridin-3-carboxamide] showed a pIC50 of more than 7.40.
Take `Cc1ccc(-c2ccn3nccc(Oc4ccc(NC(=O)C5(C(=O)Nc6ccc(F)cc6)CC5)cc4F)c23)cc1N` [Example 78]: the pIC50 was more than 7.40.
The compound `Cc1c(N)cccc1-c1ccn2nccc(Oc3ccc(NC(=O)C4(C(=O)Nc5ccc(F)cc5)CC4)cc3F)c12` [Example 79] gave a pIC50 of more than 7.40.
The figure for `COc1ccc(-c2ccn3nccc(Oc4ccc(NC(=O)C5(C(=O)Nc6ccc(F)cc6)CC5)cc4F)c23)cc1N` [Example 82] is more than 7.40; for `Nc1ccc(F)c(-c2ccn3nccc(Oc4ccc(NC(=O)C5(C(=O)Nc6ccc(F)cc6)CC5)cc4F)c23)c1` [Example 83] it is more than 7.40.
